Experiment [1] concerns Rattus norvegicus. The experiment in a line: Anticonvulsant activity in PTZ induced rat at 50 mg/kg, sc measured after 2 to 4 mins relative to control. Type of experiment: functional. The settings on record: time 2-4 min.
Experiment [2] deals with Rattus norvegicus. In words: Anticonvulsant activity in rat at 50 mg/kg, ip measured after 1 hrs by MES test relative to control. Type of experiment: functional.
Experiment [3] concerns Rattus norvegicus. In words: Anticonvulsant activity in albino rat at 30 mg/kg, ip measured after 1 hrs by MES test. Type of experiment: functional.
For experiment [4], the system named is Rattus norvegicus. In words: Inhibition of AII induced mean arterial blood pressure in rat assessed as vasoconstrictor at 1 mg/kg, po. Type of experiment: functional.
Experiment [5] in a line: Inhibition of Lacticaseibacillus casei TS.
For another experiment, the target named is Thymidylate synthase (Homo sapiens, UniProt P04818). The experiment in a line: Inhibition of human TS.
Experiment [6] can be described thus: Binding affinity to AT1 in rabbit aorta. Type of experiment: tissue-based, Oryctolagus cuniculus.

The values that follow come from ChEMBL document CHEMBL5260833, “An overview of quinazolines: Pharmacological significance and recent developments” (Eur J Med Chem, 2018).

SMILES strings stand for the structures.

Thymidylate synthase, sequence (P04818 whole entry): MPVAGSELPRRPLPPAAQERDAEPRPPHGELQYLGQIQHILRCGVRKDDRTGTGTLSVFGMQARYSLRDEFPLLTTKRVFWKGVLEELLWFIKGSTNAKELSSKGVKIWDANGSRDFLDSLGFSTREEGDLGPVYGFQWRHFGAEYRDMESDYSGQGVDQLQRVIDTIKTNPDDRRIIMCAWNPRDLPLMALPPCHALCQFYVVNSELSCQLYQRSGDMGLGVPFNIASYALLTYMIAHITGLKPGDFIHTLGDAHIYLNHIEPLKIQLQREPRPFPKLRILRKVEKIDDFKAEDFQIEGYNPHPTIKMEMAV

Consider `CCOC(=O)CNn1c(C)nc2ccc(Br)cc2c1=O`, for which the Activity in the experiment on Rattus norvegicus [1] and in the experiment on Rattus norvegicus [2] was 10% throughout. The same molecule gave an inhibition in vivo at 30 mg/kg in the experiment on Rattus norvegicus [3] of 20%.
On to `CCCCc1nc2ccc([C@]3(C)C[C@H]4CCCCN4O3)cc2c(=O)n1Cc1ccc(-c2ccccc2-c2nn[nH]n2)cc1`, for which the Activity in the experiment on Rattus norvegicus [4] turned out to be 55 mmHg.
For `COC(=O)[C@@H](NC(=O)c1ccc(Sc2c(C)ccc3nc(N)nc(O)c23)cc1)c1cccc(O)c1`, the IC50 in experiment [5] worked out at 200 nM; on Thymidylate synthase it was 3 nM.
As for `CCCCc1nc2c(C)cccc2c(=O)n1Cc1ccc(-c2ccccc2C(=O)O)cc1`, the IC50 in experiment [6] amounted to 370 nM.
On the same count and under the same terms, the result for `CCCCc1nc2cc(Cl)ccc2c(=O)n1Cc1ccc(-c2ccccc2-c2nn[nH]n2)cc1` reads no less than 1.3 nM; that for `CCCCc1nc2ccc([N+](=O)[O-])cc2c(=O)n1Cc1ccc(-c2ccccc2-c2nn[nH]n2)cc1`, no less than 1.3 nM.
Consider `CCOC(=O)CNn1c(C)nc2ccccc2c1=O`, for which the Activity in the experiment with Rattus norvegicus [1] and in the experiment with Rattus norvegicus [2] was 10% throughout. The molecule also displayed an inhibition in vivo at 30 mg/kg with Rattus norvegicus [3] of 20%.
In the case of `CCCCc1nc2ccc([C@]3(C)C[C@H]4CCCN4O3)cc2c(=O)n1Cc1ccc(-c2ccccc2-c2nn[nH]n2)cc1`, the Activity with Rattus norvegicus [4] turned out to be 55 mmHg.
Turning to `CCCCC(=O)Nc1ccc2nc(CCCC)n(Cc3ccc(-c4ccccc4-c4nn[nH]n4)cc3)c(=O)c2c1`, in experiment [6], the IC50 is no less than 1.3 nM.
Consider `CCCCc1nc2ccc([C@@]3(C)C[C@H]4CCCCN4O3)cc2c(=O)n1Cc1ccc(-c2ccccc2-c2nn[nH]n2)cc1`, for which the Activity with Rattus norvegicus [4] is 55 mmHg.
With `CCCCc1nc2cc(OC)c(OC)cc2c(=O)n1Cc1ccc(-c2ccccc2-c2nn[nH]n2)cc1`, in experiment [6], the IC50 was no less than 1.3 nM.
Same read-out and setting: then `CCCCc1nc2ccc(C)cc2c(=O)n1Cc1ccc(-c2ccccc2-c2nn[nH]n2)cc1`, with no less than 1.3 nM.
Turning to `COC(=O)c1cccc([C@H](NC(=O)c2ccc(Sc3c(C)ccc4nc(N)nc(O)c34)cc2)C(=O)OC)c1`, the figures for the IC50 (in experiment [5]; against Thymidylate synthase) were 200 nM and 3 nM, respectively.
Consider `CCCCc1nc2ccc(F)cc2c(=O)n1Cc1ccc(-c2ccccc2-c2nn[nH]n2)cc1`, for which, in experiment [6], the IC50 is no less than 1.3 nM.
As for `COC(=O)c1cccc(NC(=O)c2ccc(Sc3c(C)ccc4nc(N)[nH]c(=O)c34)cc2)c1`, the IC50 in experiment [5] stood at 200 nM; on Thymidylate synthase it was 3 nM.
The matching figures for `Cc1ccc2nc(N)[nH]c(=O)c2c1Sc1ccc(C(=O)N[C@@H](Cc2ccccc2)C(=O)O)cc1`: 200 nM and 3 nM.
As for `CCCCc1nc2ccc(OC)cc2c(=O)n1Cc1ccc(-c2ccccc2-c2nn[nH]n2)cc1`, the IC50 in experiment [6] was no less than 1.3 nM.
The same measure, in the same setting: the result for `CCCCc1nc2ccc(NC(C)=O)cc2c(=O)n1Cc1ccc(-c2ccccc2-c2nn[nH]n2)cc1` reads no less than 1.3 nM.
Take `CCCCc1nc2ccc([C@@]3(C)C[C@H]4CCCN4O3)cc2c(=O)n1Cc1ccc(-c2ccccc2-c2nn[nH]n2)cc1`: the Activity in the experiment with Rattus norvegicus [4] turned out to be 55 mmHg.
For the molecule `COC(=O)[C@H](Cc1c[nH]c2ccccc12)NC(=O)c1ccc(Sc2c(C)ccc3nc(N)[nH]c(=O)c23)cc1`, the half-inhibitory concentration (IC50) in experiment [5] is 200 nM; on Thymidylate synthase it was 3 nM.
In experiment [6], `CCCCc1nc2ccccc2c(=O)n1Cc1ccc(-c2ccccc2C(=O)O)cc1` returned an IC50 of 92 nM.
For `COC(=O)[C@H](Cc1ccc(N)cc1)NC(=O)c1ccc(Sc2c(C)ccc3nc(N)[nH]c(=O)c23)cc1`, the concentration for half-maximal inhibition (IC50) in experiment [5] was 200 nM; against Thymidylate synthase it was 3 nM.
Molecule `CCCCc1nc2ccccc2c(=O)n1Cc1ccc(-c2ccccc2-c2nn[nH]n2)cc1` displayed an IC50 in experiment [6] of no less than 1.3 nM.
On to `CCCCc1nc2cccc(F)c2c(=O)n1Cc1ccc(-c2ccccc2-c2nn[nH]n2)cc1`, for which the IC50 in experiment [6] was no less than 1.3 nM.
With `CCCCc1nc2ccc([C@]3(CC)C[C@H]4CCCN4O3)cc2c(=O)n1Cc1ccc(-c2ccccc2-c2nn[nH]n2)cc1`, the Activity in the experiment with Rattus norvegicus [4] turned out to be 55 mmHg.
Turning to `COC(=O)[C@H](Cc1ccc(O)cc1)NC(=O)c1ccc(Sc2c(C)ccc3nc(N)[nH]c(=O)c23)cc1`, the IC50 was determined as 200 nM in experiment [5] and 3 nM at Thymidylate synthase.
With `CCCCc1nc2ccc([C@@]3(c4ccccc4)C[C@H]4CCCN4O3)cc2c(=O)n1Cc1ccc(-c2ccccc2-c2nnn[nH]2)cc1`, the Activity with Rattus norvegicus [4] is on record as 55 mmHg.
With `Cc1nc2c(Br)cc(Br)cc2c(=O)n1NCC(=O)NNC(=S)NCC1C(=O)NC(=O)NC1=O`, the Activity in the experiment on Rattus norvegicus [1] and in the experiment on Rattus norvegicus [2] was 40% in each case.
Consider `CCCCc1nc2ccc([C@H]3C[C@H]4CCCCN4O3)cc2c(=O)n1Cc1ccc(-c2ccccc2-c2nnn[nH]2)cc1`, for which, in the experiment on Rattus norvegicus [4], the Activity is listed as 55 mmHg.
Molecule `CCCCc1nc2cccc(C)c2c(=O)n1Cc1ccc(-c2ccccc2C(=O)O)cc1` had an IC50 in experiment [6] of 370 nM.
Take `Cc1nc2ccc(I)cc2c(=O)n1NCc1nnc(N)s1`: the Activity in the experiment with Rattus norvegicus [1] and in the experiment with Rattus norvegicus [2] was 40% in each case.
`CCc1nc2ccc(C)cc2c(=O)n1Cc1ccc(-c2ccccc2-c2nn[nH]n2)cc1` yielded an IC50 in experiment [6] of no less than 1.3 nM.
Consider `Cc1ccc2nc(N)[nH]c(=O)c2c1Sc1ccc(C(=O)N[C@H](C)c2ccccc2)cc1`, for which the IC50 in experiment [5] is 200 nM; against Thymidylate synthase, 3 nM.
For the molecule `Cc1nc2ccc(Br)cc2c(=O)n1NCc1nnc(N)s1`, the Activity in the experiment on Rattus norvegicus [1] and in the experiment with Rattus norvegicus [2] was 40% in each case.
Take `Cc1ccc2nc(N)[nH]c(=O)c2c1Sc1ccc(C(=O)N[C@H](CO)c2ccccc2)cc1`: the IC50 is 200 nM in experiment [5] and 3 nM against Thymidylate synthase.
For the molecule `Cc1ccc2nc(N)nc(O)c2c1Sc1ccc(C(=O)N[C@H](C(=O)O)c2cccc(C(=O)O)c2)cc1`, the results for the IC50 (in experiment [5]; at Thymidylate synthase) were 200 nM and 3 nM, respectively.
As for `Cc1nc2ccccc2c(=O)n1NCC(=O)NNC(N)=S`, the Activity with Rattus norvegicus [1] and with Rattus norvegicus [2] was 20% each time. For the same molecule, the inhibition in vivo at 30 mg/kg with Rattus norvegicus [3] turned out to be 30%.
In the case of `COC(=O)[C@H](Cc1ccccc1)NC(=O)c1ccc(Sc2c(C)ccc3nc(N)[nH]c(=O)c23)cc1`, the IC50 worked out at 200 nM in experiment [5] and 3 nM at Thymidylate synthase.
As to `Cc1nc2c(Br)cc(Br)cc2c(=O)n1NCC(=O)NNC(=S)NCC1C(=O)NC(=S)NC1=O`, the Activity in the experiment on Rattus norvegicus [1] and with Rattus norvegicus [2] was 40% in each case.
Take `Cc1ccc2nc(N)nc(O)c2c1Sc1ccc(C(=O)N[C@H](C(=O)O)c2ccccc2)cc1`: the concentration for half-maximal inhibition (IC50) in experiment [5] was 200 nM; against Thymidylate synthase, 3 nM.
Molecule `CCCCc1nc2cc3ccccc3cc2c(=O)n1Cc1ccc(-c2ccccc2C(=O)O)cc1` gave an IC50 in experiment [6] of 10 nM.
As to `CCCCc1nc2ccc([C@@]3(C(=O)N4CCCCC4)C[C@H]4CCCN4O3)cc2c(=O)n1Cc1ccc(-c2ccccc2-c2nnn[nH]2)cc1`, the Activity in the experiment on Rattus norvegicus [4] is 55 mmHg.
Molecule `CCCCc1nc2ccc(Cl)cc2c(=O)n1Cc1ccc(-c2ccccc2-c2nn[nH]n2)cc1` came in with an IC50 in experiment [6] of no less than 1.3 nM.
Regarding `O=C1N=C([O-])NC1(c1ccccc1)c1ccccc1.[Na+]` [PHENYTOIN SODIUM], the Activity in the experiment on Rattus norvegicus [1] and in the experiment with Rattus norvegicus [2] was 80% in each case. This molecule also displayed an inhibition in vivo at 30 mg/kg in the experiment on Rattus norvegicus [3] of 80%.
Regarding `Cc1ccc2nc(N)nc(O)c2c1Sc1ccc(C(=O)N[C@H](C(=O)O)c2cccc(O)c2)cc1`, the results for the IC50 (in experiment [5]; against Thymidylate synthase) were 200 nM and 3 nM, respectively.
The matching figures for `COC(=O)[C@@H](NC(=O)c1ccc(Sc2c(C)ccc3nc(N)[nH]c(=O)c23)s1)c1ccccc1`: 200 nM and 3 nM.
For the molecule `Cc1nc2ccccc2c(=O)n1NCC(=O)NNC(=S)NCC1C(=O)NC(=O)NC1=O`, the Activity in the experiment on Rattus norvegicus [1] and in the experiment on Rattus norvegicus [2] was 40% throughout.
On to `Cc1nc2ccccc2c(=O)n1NCc1nnc(NCC2C(=O)NC(=S)NC2=O)s1`, for which the Activity with Rattus norvegicus [1] and with Rattus norvegicus [2] was 60% throughout.
As to `CCCCc1nc2ccc(I)cc2c(=O)n1Cc1ccc(-c2ccccc2-c2nn[nH]n2)cc1`, in experiment [6], the IC50 was no less than 1.3 nM.
In the case of `COC(=O)[C@@H](NC(=O)c1ccc(Sc2c(C)ccc3nc(N)nc(O)c23)cc1)c1ccccc1`, the IC50 was determined as 200 nM in experiment [5] and 3 nM against Thymidylate synthase.
On to `Cc1ccc2nc(N)[nH]c(=O)c2c1Sc1ccc(C(=O)Nc2cccc(C(=O)O)c2)cc1`, for which the IC50 in experiment [5] was 200 nM; against Thymidylate synthase, 3 nM.
Regarding `CCCCc1nc2ccc(C(F)(F)F)cc2c(=O)n1Cc1ccc(-c2ccccc2-c2nn[nH]n2)cc1`, in experiment [6], the IC50 was no less than 1.3 nM.
`COC(=O)[C@H](NC(=O)c1ccc(Sc2c(C)ccc3nc(N)[nH]c(=O)c23)cc1)c1ccccc1`: the IC50 in experiment [5] was 200 nM; at Thymidylate synthase, 3 nM.
Regarding `CCOC(=O)CNn1c(C)nc2ccc(I)cc2c1=O`, the Activity in the experiment on Rattus norvegicus [1] and in the experiment on Rattus norvegicus [2] was 10% each time.
`CCCCc1nc2ccc(C)cc2c(=O)n1Cc1ccc(-c2ccccc2C(=O)O)cc1` returned an IC50 in experiment [6] of 10 nM.
The same measure, in the same setting: then `CCCCc1nc2ccc(N)cc2c(=O)n1Cc1ccc(-c2ccccc2-c2nn[nH]n2)cc1`, with no less than 1.3 nM.
As for `Cc1nc2c(Br)cc(Br)cc2c(=O)n1NCc1nnc(NCC2C(=O)NC(=O)NC2=O)s1`, the Activity in the experiment on Rattus norvegicus [1] and in the experiment with Rattus norvegicus [2] was 60% in each case.
`CS(C)(=O)=O` [DIMETHYL SULFONE] came in with an IC50 in experiment [6] of 2.6 nM.
Still for that read-out and setting: the result for `CCCc1nc2ccc(C)cc2c(=O)n1Cc1ccc(-c2ccccc2-c2nn[nH]n2)cc1` reads no less than 1.3 nM.
For `CCOC(=O)CNn1c(C)nc2c(Br)cc(Br)cc2c1=O`, the Activity in the experiment with Rattus norvegicus [1] and with Rattus norvegicus [2] was 10% in each case.
Take `Cc1nc2ccc(I)cc2c(=O)n1NCC(=O)NNC(=S)NCC1C(=O)NC(=O)NC1=O`: the Activity in the experiment with Rattus norvegicus [1] and in the experiment with Rattus norvegicus [2] was 40% in each case.
Take `COC(=O)[C@H](Cc1ccc(O)c(O)c1)NC(=O)c1ccc(Sc2c(C)ccc3nc(N)[nH]c(=O)c23)cc1`: the values for the IC50 (in experiment [5]; against Thymidylate synthase) were 200 nM and 3 nM, respectively.
In turn, `CCCCCc1nc2ccc(C)cc2c(=O)n1Cc1ccc(-c2ccccc2-c2nn[nH]n2)cc1` showed an IC50 in experiment [6] of no less than 1.3 nM.
On the same count and under the same terms, the result for `CCCCc1nc2cc(C)ccc2c(=O)n1Cc1ccc(-c2ccccc2C(=O)O)cc1` reads 370 nM.
For the molecule `Cc1nc2ccc(Br)cc2c(=O)n1NCC(=O)NNC(N)=S`, the Activity in the experiment on Rattus norvegicus [1] and in the experiment with Rattus norvegicus [2] was 20% throughout. Moreover, testing at 30 mg/kg in the experiment with Rattus norvegicus [3] gave an inhibition in vivo of 30%.
